Experimental data published in patent US5656603A (Loyola University of Chicago, priority 1995, dated 1997).
Several values for one entry are separate records, joined by “and”; a condition that tells them apart may be missing. Identical values can stand only once.

Key:
[1] = test system: [3H]-bradykinin degradation in the isolated perfused rat lung; test: [3H]-bradykinin degradation in the isolated perfused rat lung (HPLC of perfusate)
Method: Using the procedure described herein, under Experimental Procedures it was determined that aminopeptidase P contributed to Bk degradation in the mammalian lung. In that procedure, [^3 H]-Bk (labelled in Pro^2 and Pro^3) was perfused through the isolated lung in the presence or absence of various peptidase inhibitors. The perfusate was then analyzed for radiolabelled products by HPLC. […] Most of the radioactivity (an average of 79%) was in the form of [^3 H]-Pro-Pro [Bk(2-3)] with the remainder being [^3 H]-Bk(1-5). It was hypothesized that pulmonary vascular aminopeptidase P was cleaving the Arg'-Pro^2 bond followed by rapid removal of Pro-Pro by dipeptidylpeptidase IV (DPP IV) (12). Simultaneously, angiotensin converting enzyme (ACE) was sequentially removing Phe-Arg and Ser-Pro from the C-terminus (13). […] However, most of the radioactivity remained in the Pro-Pro peak indicating substantial cleavage of Bk at the N-terminal end.
Perfusion of the Isolated Rat Lung--Male Sprague Dawley rats, weighing 300-500 grams, were anesthetized with sodium pentobarbital (50-75 mg/kg) given by intraperitoneal injection. The trachea was cannulated and the lungs ventilated with air at 70 cycles per minute (Harvard Small Animal Ventilator) at a pressure of 70 mm H2 O. The heart and lungs were exposed via midsternal incision and 1000 units of heparin were administered intracardially. Polyethylene cannulae were secured into the pulmonary artery and the left ventricle. A modified Krebs buffer (118.5 mM NaCl, 4.7 mM KCl, 1.1 mM KH2 PO4, 1.1 mM MgSO4, 2.5 mM CaCl2, 19.6 mM NaHCO3, 5.6 mM dextrose), which was kept in a 50° C. water bath and aerated with 95% O2 -5% CO2 to pH 7.35, was perfused into the pulmonary artery at 35° C. and 2.6 ml/min (LKB Microperplex peristaltic pump). The buffer was circulated through the isolated lung in situ until the effluent was free of blood. The surgical field was maintained at 37° .C with a heat lamp throughout the procedure. Experiments were conducted by introducing [^3 H]-Bk in the presence or absence of test peptidase inhibitors into the pulmonary circulation via the pulmonary artery and then collecting perfusion effluent from the left ventricular cannula. […] The lung was then perfused with 1 μCi [^3 H]-Bk in 1 ml of the inhibitor solution (giving 16 nM Bk) followed by inhibitor solution alone. Effluent was collected in tubes (0.5 min/fraction) containing 150 μl of 2% TFA. For each lung preparation, 5-6 samples were perfused over a period of about one hour. Control perfusions of [^3 H]-Bk alone were always carried out before perfusions of samples containing ramiprilat because of the slow reversibility of inhibition of ACE by this compound. […] The effects of the latter two inhibitors were reversible.
Separation and Identification of Bradykinin Metabolites--The fractions which were collected from each perfusion sample run were counted for radioactivity, and the fraction having the highest radioactive counts was prepared for HPLC by filtration through a Centricon-10 microconcentrator (Amicon). An aliquot of the filtrate containing 25000 dpm (approx. 25 μl) was spiked with a cocktail of unlabelled Bk fragments (3 μl) and then subjected to HPLC using a Waters Radial Compression Separation System with a 5μ NOVA PAK C18 Radial Pak Cartridge. The column was developed at a flow rate of 1 ml/min with a 60 min linear gradient from 100% Solvent A (0.1% TFA in water) to 75% Solvent A: 25% Solvent B (0.08% TFA in acetonitrile) using a Spectra Physics 8700XR Solvent Delivery System. The column effluent was simultaneously monitored for absorbance at 206 nm (LKB Uvicord S) and for radioactivity (Radiomatic Flo-One HS Radioactive Flow Detector using Ultima-Flo M scintillation fluid from Packard, Meriden, Conn.). […] Radioactive peaks were identified by comparison of the retention times to those of the unlabelled standards. […]

[2] = biological target: T1, endopeptidase 24.15 (Rattus norvegicus, UniProt P24155); test: Specificity of apstatin: endopeptidase 24.15; type: biochemical; details: rat brain synaptosomes; Bk(2-9), pH 6.8, HPLC-1
T1 construct: endopeptidase 24.15 (EC 3.4.24.15) (rat brain synaptosomes); from tissue; host or cells: rat brain synaptosomes
Method: Specificity of Apstatin--Apstatin was assayed for its ability to inhibit several other peptidases. […] Unless otherwise indicated, the source of each enzyme activity was a detergent extract of bovine lung prepared as described in (12-13). Activities were determined by a modification of the fluorescent assay described above (indicated by "FLUO") or by HPLC separation and quantitation of reaction products using the method described in (12) (method "HPLC-1") or the method described below (method "HPLC-2"). […]

T1 sequence (P24155 whole entry): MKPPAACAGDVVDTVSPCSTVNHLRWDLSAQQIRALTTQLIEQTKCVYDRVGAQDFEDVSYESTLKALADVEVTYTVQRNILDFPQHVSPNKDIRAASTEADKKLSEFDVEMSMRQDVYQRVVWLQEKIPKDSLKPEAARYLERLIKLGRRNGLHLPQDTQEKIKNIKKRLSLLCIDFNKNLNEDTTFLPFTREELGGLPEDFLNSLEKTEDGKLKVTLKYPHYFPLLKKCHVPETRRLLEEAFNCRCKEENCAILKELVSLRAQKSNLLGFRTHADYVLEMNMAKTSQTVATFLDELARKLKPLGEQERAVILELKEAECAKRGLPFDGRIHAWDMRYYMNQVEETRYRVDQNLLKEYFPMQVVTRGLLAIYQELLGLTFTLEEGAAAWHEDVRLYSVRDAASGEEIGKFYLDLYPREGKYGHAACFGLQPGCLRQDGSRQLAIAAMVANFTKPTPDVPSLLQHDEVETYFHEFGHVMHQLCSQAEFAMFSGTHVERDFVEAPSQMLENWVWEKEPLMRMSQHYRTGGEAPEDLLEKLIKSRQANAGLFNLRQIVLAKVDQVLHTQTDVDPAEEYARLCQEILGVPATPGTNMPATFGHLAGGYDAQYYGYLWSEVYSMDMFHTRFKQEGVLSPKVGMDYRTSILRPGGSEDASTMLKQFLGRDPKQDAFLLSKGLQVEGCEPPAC

With `C[C@H](NC(=O)[C@@H]1CCCN1C(=O)[C@@H]1CCCN1C(=O)[C@@H](O)[C@H](N)Cc1ccccc1)C(N)=O` [apstatin, N-[(2S, 3R)-3-amino-2-hydroxy-4-phenylbutanoyl]-L-prolyl-L-prolyl-Lalaninamide] the “percentage of radioactivity eluting from the lung as intact [3H]-Bk” value ([1]; apstatin 40 μM together with ramiprilat (0.5 μM), mean ± SEM, three rats) was 92±4% and 92%, the “percentage of radioactivity eluting from the lung as intact [3H]-Bk” value ([1]; apstatin alone (data not shown), difficult to quantitate accurately) was 1-3% and the IC50 [2] was over 800 µM.
